Laboratory results as given in US20070117770A1, “Human ribosomal DNA (rDNA) and ribosomal RNA (rRNA) nucleic acids and uses thereof” (Cylene Pharmaceuticals, Inc., priority 2005, published 2007).
“Also recorded” adds a separate entry of the source.

Key:
[1] = system: 28S rRNA and 18S rRNA (total RNA from HCT116 cells); test: Human rRNA interaction screening assay (agarose gel electrophoresis mobility shift); type: binding; conditions: 1 ug total RNA; 10 uM compound or 0.5 ug/mL PI, 15 min, room temperature
Description: RNA was isolated from HCT116 cells (RNeasy kit, QIAGEN) and contacted in vitro with each compound from a library of compounds. In representative assays, 1 ug of total RNA from HCT116 cells was incubated with 0.5 ug/mL of propidium iodide (PI), 10 uM compound A-1 or another compound in the library in a volume of 10 uL for 15 min at room temperature, followed by agarose gel electrophoresis. Fluorescence of the compounds was visualized on each gel. […] Compounds C-1, C-2, C-3, C-4 and C-5 have the following general formula: [drawing 15] [drawing 16]

nucleolin in A549 cells = test: Cell nucleolin localization (immunofluorescence); type: cell-based; conditions: 10 uM, two hours
Description: An assay was conducted to determine the effect of ribosomal nucleic acid interacting compounds on cell nucleolin location. In these studies, A549 cells were plated in borosilicate chamber slides. The cells were treated with 10 uM compound A-1 the next day for two hours, washed with phosphate buffered saline, fixed for 10 minutes in 4% paraformaldehyde, permeabilized for 5 minutes in a 1:1 ethanol:acetone mix, incubated with a 1:100 dilution of an anti-nucleolin monoclonal antibody (catalog no. RDI-NUCLEOLabm; Research Diagnostics, Inc.) in 5% donkey serum, followed by incubation with a 1:100 diluted TRITC-labeled secondary anti-mouse antibody and observed under a fluorescence microscope (e.g., Olympus) in the TRITC channel at 600× magnification. […] Accordingly, nucleolin was redistributed from the nucleolus to the nucleoplasm in cells treated with a compound tested in the assay.

cells = test: Cell cycle progression (propidium iodide, flow cytometry); type: cell-based; conditions: various concentrations, varying amounts of time
Description: (§1) In assays for determining cell cycle progression effects, cells were harvested and single cell suspensions were prepared in buffer (e.g. PBS +2% FBS; PBS+0.1% BSA). Cells were washed twice and resuspend at 1-2×10^6 cells/ml. One ml cells was aliquotted in a 15 ml polypropylene, V-bottomed tube and 3 ml cold absolute ethanol was added. Cells were fixed for at least one hour at 4° C. Fixed cells were washed twice in PBS and one ml of propidium iodide staining solution (3.8 mM sodium citrate, 50 ug/ml propidium iodide in PBS) was added to each cell pellet and mixed well. Fifty microliters of an RNase A stock solution ([…] RNase A boiled for 5 minutes and aliquoted and stored frozen at −20° C.) was added and the resulting mixture was incubated for 3 hours at 4° C. Samples were stored at 4° C. until analyzed by flow cytometry.

rRNA synthesis, HCT-116 = test: PCR assay of rRNA synthesis from 45S rDNA (5' ETS probe); type: cell-based; conditions: various concentrations; two hour or four hour incubation (FIGS. 4A, 4B)
Description: Assays were conducted to determine the effects of compounds on rRNA synthesis from 45S rDNA. In particular, compound A-1 at various concentrations was incubated with cells and tested for an effect on rRNA synthesis after a two hour or four hour incubation with the compound. Synthesized rRNA was quantified by a polymerase chain reaction (PCR) assay. A primer/probe set was designed using Primer Express software and synthesized by Applied Biosystems. The 5′ ETS Probe utilized had the following sequence (@ its 3′ end): 6FAM-TTG ATC CTG CCA GTA GC-MGBNFQ (SEQ ID NO:227). The primer sequences were as follows:
Mix • 1 ug RNA • 2.5 ul 10× Taq Man buffer • 5.5 ul 25 mM MgCl2 • 5 ul of a mix of dNTP (500 uM each) • 1.2 ul random hexamer primer (2.5 uM stock) • 0.5 ul RNase inhibitor (0.4 units/ul) • 0.6 ul Reverse Transcriptase (1.2 units/ul) • bring to 25 ul total volume with water
Mix • 5 ul Reverse Transcriptase reaction product • 12.5 ul 2×PCR mix • 1 uM forward primer • 1 uM reverse primer • 0.5 uM Taq Man probe • 500 nM Rox • Adjust to 25 ul final volume with water
PCR cycles • 95 degrees C. 1 minute • 40 cycles of • 95 degrees C. 15 seconds • 60 degrees C. 1 minute.
Fluorescence of digested label was detected and quantified. […] The effect of other compounds on rRNA synthesis also were assessed in the assay, and provided in the table hereafter are IC50 values of selected compounds pertaining to rRNA synthesis and cMYC RNA synthesis.

[2] = system: DAOY medulloblastoma cells (p53−); test: Cell cycle progression (propidium iodide, flow cytometry); type: cell-based
Description: as §1

[3] = system: HCT-116 colon carcinoma cells (p53+); test: as above; type: cell-based; conditions: HCT-116 (p53+)
Description: as §1

MiaPaCa pancreatic cells = test: as above; type: cell-based
Description: as §1

SMILES	binding to 28S versus 18S rRNA [1]	nucleolin localization in treated cells (nucleolin in A549 cells)	effect on the cell cycle (cells)	effect on rRNA synthesis (rRNA synthesis, HCT-116)	cell cycle arrest [2]	cell cycle arrest [3]	cell cycle arrest (MiaPaCa pancreatic cells)
CN1CCCC1CCNC(=O)c1cn2c3c(c(N4CCC(c5cnccn5)C4)c(F)cc3c1=O)Oc1cc3ccccc3cc1-2 (stereo not shown) [Compound A-1]	bound preferentially to 28S rRNA; also recorded: selective binding to 28S over 18S	nucleolin was redistributed to the nucleoplasm	little or no affect on the cell cycle	inhibited rRNA synthesis at two hours and four hours			
CC(=O)N1CCN(c2ccc3c(=O)c(C(=O)NCCN4CCCC4)c4n(C)c5ccccc5n4c3n2)CC1 [Compound B-1]					arrested primarily in the S phase with some G2 arrest as well	arrested in G1 and G2 phases of the cell cycle	arrested primarily in the S phase with some G2 arrest as well
